{
  "source": "ChEMBL document CHEMBL6115017",
  "about": "“Discovery of DFV890, a Potent Sulfonimidamide-Containing NLRP3 Inflammasome Inhibitor” (J Med Chem, 2025)",
  "key": {"[1]": {"assay": "Metabolic stability in human hepatocytes assessed as intrinsic clearance measured per 10^6 cells", "format": "ADME, cell-based, Hepatocyte", "conditions": "read-out: CLH"}, "[2]": {"assay": "Metabolic stability in Cynomolgus monkey hepatocytes assessed as intrinsic clearance measured per 10^6 cells", "format": "ADME, cell-based, Macaca fascicularis, Hepatocyte", "conditions": "read-out: CLH"}, "[3]": {"assay": "AUC (infinity) in Beagle dog at 2 mg/kg, po by LC-MS analysis", "format": "ADME, organism-based, Canis lupus familiaris", "conditions": "in vivo"}, "[4]": {"assay": "Cmax in Cynomolgus monkey at 5 mg/kg, po by LC-MS analysis", "format": "ADME, organism-based, Macaca fascicularis", "conditions": "in vivo"}, "[5]": {"assay": "Fraction unbound in Beagle dog […] plasma", "format": "ADME, cell-free, Canis lupus familiaris"}, "Cytochrome P450 3A5 [6]": {"biological_target": "T1, Cytochrome P450 3A5 (Homo sapiens, UniProt P20815)", "T1 sequence (P20815 whole entry)": "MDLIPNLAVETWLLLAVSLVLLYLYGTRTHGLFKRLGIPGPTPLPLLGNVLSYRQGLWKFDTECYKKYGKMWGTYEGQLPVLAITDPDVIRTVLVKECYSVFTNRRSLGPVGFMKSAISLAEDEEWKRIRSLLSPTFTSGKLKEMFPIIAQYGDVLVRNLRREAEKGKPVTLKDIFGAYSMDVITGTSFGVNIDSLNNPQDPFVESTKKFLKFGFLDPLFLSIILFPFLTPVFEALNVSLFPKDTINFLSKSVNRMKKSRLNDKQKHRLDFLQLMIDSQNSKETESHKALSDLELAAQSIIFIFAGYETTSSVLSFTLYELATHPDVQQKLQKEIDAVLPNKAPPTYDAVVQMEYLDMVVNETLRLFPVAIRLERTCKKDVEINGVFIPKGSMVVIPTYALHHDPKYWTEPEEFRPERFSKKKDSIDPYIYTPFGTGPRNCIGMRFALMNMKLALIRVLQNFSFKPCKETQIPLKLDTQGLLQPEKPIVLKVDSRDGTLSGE", "assay": "Inhibition of CYP3A5 (unknown origin)", "format": "ADME"}, "Mus musculus [7]": {"tested_on": "Mus musculus", "assay": "In vivo anti-inflammatory activity against MSU crystal-induced gouty arthritis Balb/c mouse model assessed as reduction of volume of pouch exudate at 0.1 to 50 mg/kg, po single dose", "format": "functional, organism-based", "conditions": "dose 0.1-50 mg/kg"}, "THP-1 [8]": {"tested_on": "THP-1", "assay": "Inhibition of pyroptosis in PMA-primed human THP-1 cells assessed as release of lactate dehydrogenase"}, "[9]": {"assay": "AUC (infinity) in Sprague-Dawley rat at 5 mg/kg, po by LC-MS analysis", "format": "ADME, organism-based", "conditions": "in vivo"}, "[10]": {"biological_target": "Voltage-gated inwardly rectifying potassium channel KCNH2 (Homo sapiens, UniProt Q12809)", "sequence (Q12809 whole entry)": "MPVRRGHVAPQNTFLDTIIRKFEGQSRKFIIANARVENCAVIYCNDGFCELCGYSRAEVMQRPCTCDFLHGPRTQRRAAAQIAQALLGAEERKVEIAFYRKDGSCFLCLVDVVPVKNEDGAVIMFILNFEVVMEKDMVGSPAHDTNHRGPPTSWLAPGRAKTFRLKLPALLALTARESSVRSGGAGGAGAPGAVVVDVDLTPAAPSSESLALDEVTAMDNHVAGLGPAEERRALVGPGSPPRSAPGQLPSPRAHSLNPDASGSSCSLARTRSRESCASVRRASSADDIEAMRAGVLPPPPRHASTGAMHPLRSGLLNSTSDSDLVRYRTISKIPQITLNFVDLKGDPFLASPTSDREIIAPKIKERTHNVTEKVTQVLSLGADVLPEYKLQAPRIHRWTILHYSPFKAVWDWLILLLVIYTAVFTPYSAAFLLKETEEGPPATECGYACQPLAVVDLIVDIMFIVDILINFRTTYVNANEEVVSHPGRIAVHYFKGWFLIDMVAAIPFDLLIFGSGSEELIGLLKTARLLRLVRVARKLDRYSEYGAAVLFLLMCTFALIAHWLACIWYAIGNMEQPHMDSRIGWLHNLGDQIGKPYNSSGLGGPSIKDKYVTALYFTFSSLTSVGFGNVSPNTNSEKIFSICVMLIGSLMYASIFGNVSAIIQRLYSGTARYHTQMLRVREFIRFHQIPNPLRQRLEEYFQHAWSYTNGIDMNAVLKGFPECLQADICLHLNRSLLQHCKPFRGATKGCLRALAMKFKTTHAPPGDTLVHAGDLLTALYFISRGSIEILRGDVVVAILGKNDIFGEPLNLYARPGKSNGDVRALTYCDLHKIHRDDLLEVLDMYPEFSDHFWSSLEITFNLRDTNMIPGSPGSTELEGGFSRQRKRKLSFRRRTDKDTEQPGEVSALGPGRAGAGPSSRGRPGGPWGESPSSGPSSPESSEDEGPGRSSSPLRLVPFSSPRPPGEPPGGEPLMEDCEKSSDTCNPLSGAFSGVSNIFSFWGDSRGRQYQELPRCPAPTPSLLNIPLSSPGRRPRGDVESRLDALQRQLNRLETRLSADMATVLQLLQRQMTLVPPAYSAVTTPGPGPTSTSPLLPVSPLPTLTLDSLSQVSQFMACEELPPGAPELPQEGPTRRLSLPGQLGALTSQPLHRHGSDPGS", "assay": "Inhibition of hERG", "format": "toxicity"}, "Mus musculus [11]": {"tested_on": "Mus musculus", "assay": "In vivo anti-inflammatory activity against MSU crystal-induced gouty arthritis Balb/c mouse model assessed as reduction in neutrophil recruitment in at 0.1 to 50 mg/kg, po single dose", "format": "functional, organism-based", "conditions": "dose 0.1-50 mg/kg"}, "[12]": {"assay": "Fraction unbound in Sprague-Dawley rat plasma", "format": "ADME, cell-free"}, "[13]": {"assay": "In vivo inhibition of NLRP3 dependent cytokine production in po dosed LPS-challenged C57BL/6 mouse model assessed as inhibition of LPS-induced IL-1beta production in blood by measuring plasma compound concentration by enhanced flex bead assay", "format": "functional, organism-based"}, "PBMC": {"tested_on": "PBMC", "assay": "Antagonist activity at NLRP3 inflammasome activation in Cynomolgus monkey PBMC assessed as inhibition of LPS-stimulated IL-1beta release by measuring free concentration pretreated for 1 hr followed by induced with LPS measured after 18 hrs by HTRF analysis", "format": "cell-based", "conditions": "Macaca fascicularis, filed as antagonist, time 19.0 hrs"}, "Macrophage [14]": {"tested_on": "Macrophage", "assay": "Inhibition of pyrin inflammasome activation in immortalized NLRP3-KO mouse macrophages assessed as inhibition of TcdB-induced IL-1beta release pretreated for 1 hr followed by induced with TcdB measured after 6 hrs by HTRF analysis", "format": "cell-based", "conditions": "time 7.0 hrs"}, "Cytochrome P450 3A5 [15]": {"biological_target": "T1, Cytochrome P450 3A5", "assay": "Inhibition of CYP3A5 (unknown origin) by time dependent inhibition assay", "format": "ADME"}, "[16]": {"assay": "Oral bioavailability in Beagle dog at 2 mg/kg administrated through oral gavage by LC-MS analysis", "format": "ADME, organism-based, Canis lupus familiaris", "conditions": "in vivo"}, "[17]": {"assay": "Cytotoxicity against human HEK293 cells measured after 72 hrs", "format": "toxicity, cell-based"}, "Cytochrome P450 2C19": {"biological_target": "Cytochrome P450 2C19 (Homo sapiens, UniProt P33261)", "sequence (P33261 whole entry)": "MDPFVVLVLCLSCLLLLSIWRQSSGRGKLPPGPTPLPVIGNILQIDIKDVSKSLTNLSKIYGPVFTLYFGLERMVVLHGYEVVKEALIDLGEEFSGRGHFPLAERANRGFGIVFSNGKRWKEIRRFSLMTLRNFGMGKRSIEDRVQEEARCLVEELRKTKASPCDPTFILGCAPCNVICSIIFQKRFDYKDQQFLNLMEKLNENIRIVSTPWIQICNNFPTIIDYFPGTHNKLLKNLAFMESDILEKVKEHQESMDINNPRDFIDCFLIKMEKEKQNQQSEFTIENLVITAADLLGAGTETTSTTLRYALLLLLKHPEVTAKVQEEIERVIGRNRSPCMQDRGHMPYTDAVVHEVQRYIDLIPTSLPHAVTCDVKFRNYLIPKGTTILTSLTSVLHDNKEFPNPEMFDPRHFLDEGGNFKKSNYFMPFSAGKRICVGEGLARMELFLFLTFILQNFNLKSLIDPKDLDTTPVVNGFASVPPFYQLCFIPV", "assay": "Inhibition of CYP2C19 (unknown origin) by time dependent inhibition assay", "format": "ADME"}, "[18]": {"assay": "Thermodynamic solubility in PBS at pH 7.4", "format": "physicochemical", "conditions": "read-out: Therm_solubility"}, "Cytochrome P450 2B6": {"biological_target": "T2, Cytochrome P450 2B6 (Homo sapiens, UniProt P20813)", "T2 sequence (P20813 whole entry)": "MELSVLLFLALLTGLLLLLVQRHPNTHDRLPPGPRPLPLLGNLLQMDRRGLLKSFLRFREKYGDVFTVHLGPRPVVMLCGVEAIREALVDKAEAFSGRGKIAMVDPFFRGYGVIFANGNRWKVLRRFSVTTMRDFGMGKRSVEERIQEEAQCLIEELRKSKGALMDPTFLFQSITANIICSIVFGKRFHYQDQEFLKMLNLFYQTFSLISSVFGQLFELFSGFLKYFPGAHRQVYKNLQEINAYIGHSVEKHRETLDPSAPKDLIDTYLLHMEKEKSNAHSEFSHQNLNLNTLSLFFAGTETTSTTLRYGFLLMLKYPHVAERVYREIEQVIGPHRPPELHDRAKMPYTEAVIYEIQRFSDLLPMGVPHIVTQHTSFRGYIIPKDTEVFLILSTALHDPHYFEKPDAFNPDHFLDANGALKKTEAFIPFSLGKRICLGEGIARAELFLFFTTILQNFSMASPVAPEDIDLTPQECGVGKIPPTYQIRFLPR", "assay": "Inhibition of CYP2B6 (unknown origin)", "format": "ADME"}, "[19]": {"assay": "Fraction unbound in Cynomolgus monkey plasma", "format": "ADME, cell-free, Macaca fascicularis"}, "[20]": {"assay": "Oral bioavailability in C57 BL6 mouse at 10 mg/kg administrated through oral gavage by LC-MS analysis", "format": "ADME, organism-based", "conditions": "in vivo"}, "[21]": {"assay": "Cmax in Beagle dog at 2 mg/kg, po by LC-MS analysis", "format": "ADME, organism-based, Canis lupus familiaris", "conditions": "in vivo"}, "Macrophage [22]": {"tested_on": "Macrophage", "assay": "Inhibition of AIM2 inflammasome activation in mouse iMac assessed as inhibition of poly(dA:dT) induced IL-1beta release pretreated for 1 hr followed by induced with poly(dA:dT) measured after 2 hr incubation by HTRF analysis", "format": "cell-based", "conditions": "time 3.0 hrs"}, "[23]": {"assay": "Mutagenicity in Salmonella typhimurium by AMES test", "format": "toxicity", "conditions": "salmonella enterica subsp. enterica serovar typhimurium"}, "[24]": {"assay": "Lipophilicity, log D of compound in potassium phosphate buffer/octanol at pH 7.4", "format": "physicochemical"}, "Cytochrome P450 2D6": {"biological_target": "Cytochrome P450 2D6 (Homo sapiens, UniProt P10635)", "sequence (P10635 whole entry)": "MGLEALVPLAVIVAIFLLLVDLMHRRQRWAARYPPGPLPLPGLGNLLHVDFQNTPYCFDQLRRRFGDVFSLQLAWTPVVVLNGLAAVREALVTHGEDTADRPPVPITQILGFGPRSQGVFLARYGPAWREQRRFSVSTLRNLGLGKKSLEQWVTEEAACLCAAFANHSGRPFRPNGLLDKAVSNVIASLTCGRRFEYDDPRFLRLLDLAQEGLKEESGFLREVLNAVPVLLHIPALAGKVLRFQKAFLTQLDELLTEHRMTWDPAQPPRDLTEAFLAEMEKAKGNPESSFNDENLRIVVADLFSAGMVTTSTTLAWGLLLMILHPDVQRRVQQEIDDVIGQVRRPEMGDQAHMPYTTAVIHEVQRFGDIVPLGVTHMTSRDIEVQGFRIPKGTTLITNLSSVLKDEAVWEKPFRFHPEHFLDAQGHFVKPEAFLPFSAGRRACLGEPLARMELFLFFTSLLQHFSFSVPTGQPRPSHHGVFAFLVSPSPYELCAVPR", "assay": "Inhibition of CYP2D6 (unknown origin) by time dependent inhibition assay", "format": "ADME"}, "Cytochrome P450 2C9": {"biological_target": "Cytochrome P450 2C9 (Homo sapiens, UniProt P11712)", "sequence (P11712 whole entry)": "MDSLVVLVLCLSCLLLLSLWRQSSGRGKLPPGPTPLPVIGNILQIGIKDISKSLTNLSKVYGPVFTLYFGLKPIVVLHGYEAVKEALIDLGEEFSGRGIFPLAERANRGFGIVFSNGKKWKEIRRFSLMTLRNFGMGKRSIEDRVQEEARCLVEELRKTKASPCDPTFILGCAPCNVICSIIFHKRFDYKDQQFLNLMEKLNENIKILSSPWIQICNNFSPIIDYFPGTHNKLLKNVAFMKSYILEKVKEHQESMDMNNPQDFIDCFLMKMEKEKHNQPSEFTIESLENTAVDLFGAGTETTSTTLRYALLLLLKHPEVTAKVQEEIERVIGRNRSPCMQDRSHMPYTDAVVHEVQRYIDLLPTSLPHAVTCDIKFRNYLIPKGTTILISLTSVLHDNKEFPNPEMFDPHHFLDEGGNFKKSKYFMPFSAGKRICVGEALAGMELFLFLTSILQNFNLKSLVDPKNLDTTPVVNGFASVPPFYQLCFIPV", "assay": "Inhibition of CYP2C9 (unknown origin)", "format": "ADME"}, "[25]": {"assay": "Cmax in Sprague-Dawley rat at 5 mg/kg, po by LC-MS analysis", "format": "ADME, organism-based", "conditions": "in vivo"}, "[26]": {"biological_target": "Nucleotide-binding oligomerization domain-containing protein 2 (Homo sapiens) (UniProt Q9HC29)", "sequence (Q9HC29 whole entry, the tested form may be a part)": "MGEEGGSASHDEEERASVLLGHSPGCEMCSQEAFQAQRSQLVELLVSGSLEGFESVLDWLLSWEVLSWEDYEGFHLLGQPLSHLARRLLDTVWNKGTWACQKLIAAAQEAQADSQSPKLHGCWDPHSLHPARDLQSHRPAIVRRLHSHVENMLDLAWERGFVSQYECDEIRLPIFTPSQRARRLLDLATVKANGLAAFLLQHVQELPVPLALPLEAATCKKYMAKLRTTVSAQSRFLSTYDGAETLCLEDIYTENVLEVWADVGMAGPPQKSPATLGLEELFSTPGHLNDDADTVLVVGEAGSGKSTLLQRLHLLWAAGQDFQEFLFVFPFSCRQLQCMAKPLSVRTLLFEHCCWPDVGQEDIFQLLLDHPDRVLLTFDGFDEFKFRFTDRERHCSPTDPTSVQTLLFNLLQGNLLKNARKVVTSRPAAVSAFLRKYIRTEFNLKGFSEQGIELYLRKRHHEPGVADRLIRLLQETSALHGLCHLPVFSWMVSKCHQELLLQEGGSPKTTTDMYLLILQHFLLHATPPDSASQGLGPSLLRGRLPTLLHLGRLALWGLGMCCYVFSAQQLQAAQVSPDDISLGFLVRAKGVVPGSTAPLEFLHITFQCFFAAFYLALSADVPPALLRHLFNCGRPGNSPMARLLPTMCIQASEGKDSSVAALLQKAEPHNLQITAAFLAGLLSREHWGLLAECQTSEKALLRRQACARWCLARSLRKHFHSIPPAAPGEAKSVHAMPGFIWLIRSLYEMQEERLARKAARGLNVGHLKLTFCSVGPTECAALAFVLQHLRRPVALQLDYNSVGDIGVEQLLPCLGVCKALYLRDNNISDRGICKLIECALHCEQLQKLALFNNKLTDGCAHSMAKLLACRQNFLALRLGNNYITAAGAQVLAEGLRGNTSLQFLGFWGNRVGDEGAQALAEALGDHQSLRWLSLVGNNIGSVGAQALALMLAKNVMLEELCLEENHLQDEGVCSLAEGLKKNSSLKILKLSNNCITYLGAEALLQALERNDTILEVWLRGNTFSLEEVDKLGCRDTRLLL", "assay": "Inhibition of human NOD2 inflammasome activation expressed in […] cells assessed as inhibition of L18-MDP induced NF-kappaB activation by measuring SEAP activity pretreated for 1 hr followed by induced with L18-MDP measured after 18 hrs by Spectrophotometric analysis", "format": "cell-based", "conditions": "HEK, time 19.0 hrs"}, "Cytochrome P450 3A4": {"biological_target": "Cytochrome P450 3A4 (Homo sapiens, UniProt P08684)", "sequence (P08684 whole entry)": "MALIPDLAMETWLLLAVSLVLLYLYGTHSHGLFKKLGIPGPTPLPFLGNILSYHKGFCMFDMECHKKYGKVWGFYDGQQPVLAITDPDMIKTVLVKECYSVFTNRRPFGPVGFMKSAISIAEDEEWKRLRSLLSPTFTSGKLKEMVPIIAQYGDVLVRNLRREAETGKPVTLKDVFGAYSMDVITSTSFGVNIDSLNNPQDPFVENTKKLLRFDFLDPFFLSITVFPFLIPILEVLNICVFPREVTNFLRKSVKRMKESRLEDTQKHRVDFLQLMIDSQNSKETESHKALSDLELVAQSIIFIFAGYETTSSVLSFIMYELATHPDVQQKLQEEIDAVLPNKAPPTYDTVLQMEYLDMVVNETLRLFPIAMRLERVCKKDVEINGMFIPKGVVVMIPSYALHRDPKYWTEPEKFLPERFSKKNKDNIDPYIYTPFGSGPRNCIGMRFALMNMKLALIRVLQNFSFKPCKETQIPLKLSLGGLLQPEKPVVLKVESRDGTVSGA", "assay": "Inhibition of CYP3A4 (unknown origin) by time dependent inhibition assay", "format": "ADME"}, "THP-1 [27]": {"tested_on": "THP-1", "assay": "Inhibition of mCerulean-tagged ASC pyroptosome formation in PMA-primed human THP-1 cells assessed as speak count pretreated for 1 hr followed by stimulated with gramicidin for 2 hrs by fluorescence imaging analysis", "format": "cell-based", "conditions": "dose 0.001-100 µM"}, "[28]": {"assay": "Half life in C57 BL6 mouse at 10 mg/kg, po and 2 mg/kg, iv by LC-MS analysis", "format": "ADME, organism-based", "conditions": "in vivo"}, "Mus musculus [29]": {"tested_on": "Mus musculus", "assay": "In vivo inhibition of NLRP3 dependent cytokine production in po dosed LPS-challenged C57BL/6 mouse model assessed as inhibition of LPS-induced IL-6 production in blood pretreated for 1 hr followed by induced with LPS measured after 5 hrs by cytokine bead assay", "format": "functional, organism-based", "conditions": "time 6.0 hrs"}},
  "note": "pIC50: −log10 of the molar value. Active and inactive are the calls of the source. No cut-off for these calls is given here.",
  "data": [
    {"molecule": "CC(C)(O)c1ncc([S@](N)(=O)=NC(=O)Nc2c3c(cc4c2CCC4)CCC3)s1", "values": [
      {"measurement": "hepatocyte CLint", "setting": "[1]", "result": 8.4, "unit": "µL/min/1e6 cells"},
      {"measurement": "hepatocyte CLint", "setting": "[2]", "result": 4.2, "unit": "µL/min/1e6 cells"},
      {"measurement": "AUC(0-inf)", "setting": "[3]", "result": 163, "unit": "µg·h/mL"},
      {"measurement": "Cmax", "setting": "[4]", "result": 21500, "unit": "ng/mL"},
      {"measurement": "fraction unbound", "setting": "[5]", "result": 0.009},
      {"measurement": "pIC50", "setting": "Cytochrome P450 3A5 [6]", "result": "< 4.22"},
      {"measurement": "Activity", "setting": "Mus musculus [7]", "result": "Active"},
      {"measurement": "pIC50", "setting": "THP-1 [8]", "result": 7.57},
      {"measurement": "AUC", "setting": "[9]", "result": 49.125, "unit": "µg·h/mL"},
      {"measurement": "pIC50", "setting": "[10]", "result": "< 4.52"},
      {"measurement": "Activity", "setting": "Mus musculus [11]", "result": "Active"},
      {"measurement": "fraction unbound", "setting": "[12]", "result": 0.012},
      {"measurement": "IC50", "setting": "[13]; Mus musculus, C57BL/6", "result": 0.416, "unit": "µg/mL"},
      {"measurement": "IC90", "setting": "[13]; route po", "result": 3.742, "unit": "µg/mL"},
      {"measurement": "fIC50", "setting": "PBMC", "result": 1, "unit": "nM"},
      {"measurement": "Activity", "setting": "Macrophage [14]", "result": "inactive"},
      {"measurement": "TDI", "setting": "Cytochrome P450 3A5 [15]", "result": "Not_active"},
      {"measurement": "bioavailability", "setting": "[16]", "result": 97, "unit": "%"},
      {"measurement": "EC50 at 72 h", "setting": "[17]", "result": "> 100", "unit": "µM"},
      {"measurement": "TDI", "setting": "Cytochrome P450 2C19", "result": "Not_active"},
      {"measurement": "solubility thermodynamic", "setting": "[18]", "result": 21, "unit": "µg/mL"},
      {"measurement": "pIC50", "setting": "Cytochrome P450 2B6", "result": "< 4.22"},
      {"measurement": "fraction unbound", "setting": "[19]", "result": 0.005},
      {"measurement": "bioavailability", "setting": "[20]", "result": 61, "unit": "%"},
      {"measurement": "Cmax", "setting": "[21]", "result": 6560, "unit": "ng/mL"},
      {"measurement": "Activity", "setting": "Macrophage [22]", "result": "inactive"},
      {"measurement": "Activity", "setting": "[23]", "result": "Non-toxic"},
      {"measurement": "logD", "setting": "[24]", "result": 2.37},
      {"measurement": "TDI", "setting": "Cytochrome P450 2D6", "result": "Not_active"},
      {"measurement": "pIC50", "setting": "Cytochrome P450 2C9", "result": "< 4.22"},
      {"measurement": "Cmax", "setting": "[25]", "result": 8860, "unit": "ng/mL"},
      {"measurement": "Activity", "setting": "[26]", "result": "inactive"},
      {"measurement": "TDI", "setting": "Cytochrome P450 3A4", "result": "Not_active"},
      {"measurement": "inhibition", "setting": "THP-1 [27]", "result": "Dose-dependent-effect"},
      {"measurement": "half-life", "setting": "[28]", "result": 3.9, "unit": "h"},
      {"measurement": "inhibition", "setting": "Mus musculus [29]", "result": "Dose-dependent-effect"}
    ]}
  ]
}
